The test system of test [1] is primary prostate cancer within the prostate gland. Briefly: Phase 2 study: SPECT/CT detection of primary prostate cancer vs histopathology. The test is classed as in vivo, human. As for the experimental part: A phase-2 study to image men with high-risk prostate cancer scheduled for radical prostatectomy (RP) and Extended Pelvic Lymph Node Dissection (EPLND) was performed using a compound according to Formula (1), as an illustrative radioimaging agent. The primary objective of the study was to assess the safety and the ability of the Formula (1) compound to detect prostate cancer within the prostate gland. Secondary objectives include (i) assess the ability of the Formula (1) compound to detect the extent and location of prostate cancer within the prostate gland, (2) assess the ability of the Formula (1) compound to detect metastatic PCa within pelvic lymph nodes and to further detect the specific location of metastatic PCa within anatomic pelvic lymph node regions, (3) compare the performance of the Formula (1) compound as a prostate cancer imaging agent to MRI and compare the ability of the Formula (1) compound to detect the specific location of metastatic PCa within pelvic lymph nodes to the ability of MRI for detecting the specific location of metastatic PCa within pelvic lymph nodes.
A Phase-2 multi-center, multi-reader, open-label trial, to assess the performance characteristics of the Formula (1) compound as an imaging agent was measured by true-positive fraction (TPF equivalent to sensitivity) and false-positive fraction (FPF, equivalent to 1-specificity). The “truth standard” for determining true-positive cases and false-positive cases were histopathology results obtained subsequent to RP and EPLND. The performance of the Formula (1) compound as an imaging agent was compared to MRI by calculating (1) the difference in correctly identified positive cases by each imaging method that also are positive by histopathology subsequent to RP and EPLND (TPF); and (2), the difference in incorrectly identified […] cases by each imaging method, that also are […] by histopathology subsequent to RP and EPLND (FPF).
Newly-diagnosed prostate cancer patients at high-risk for metastatic disease who were scheduled for RP with EPLND were enrolled in the study. […] Subjects will receive a single intravenous dose of the Formula (1) compound (study drug) followed by both whole-body planar and SPECT/CT imaging 3-6 hours after injection. As standard of care, subjects underwent RP with EPLND surgery and histological assessment of specimens no more than 3 weeks after study drug dosing. Images of the patients were evaluated for visible uptake of the Formula (1) compound within the prostate gland and by regional assessment of nodal disease. These findings were compared against histopathology results used as the truth standard.
Efficacy analyses were conducted utilizing histopathology results subsequent to radical prostatectomy and extended pelvic lymph node dissection as the truth-standard for determination of positive and negative cases. Primary efficacy analyses estimated the ability of the compound represented by Formula (1) to detect cancer in prostate glands that were confirmed as harboring tumor based on a biopsy. The primary efficacy analysis evaluated sensitivity and specificity of the compound represented by Formula (1) using 80% power to establish the lower bound of one-sided 95% confidence intervals. All subjects who receive the Formula (1) and complete surgery will be included in the primary efficacy analysis.
Patients (pts) with biopsy confirmed adenocarcinoma of the prostate scheduled for RP with extended pelvic lymph node dissection (EPLND) at high risk for disease outside of the prostate gland were eligible. High risk patients were stage of T3c or […] or a nomogram score ≧130 (Godot′ et al., Eur. Urol., (2011), p 195-201). Within 30 days of screening, the patients required a bone scan and pelvic MRI. After enrollment, the patients received a compound represented by Formula (1) at a dose of 20 mCi±3 mCi followed by whole-body planar and SPECT/CT imaging 3 to 6 hrs later. Patients then underwent RP with EPLND within 21 days. […]

Test [2] concerns lesions in lymph nodes and bone of men with prostate cancer. In words: Phase 1 cross-over study: whole-body and SPECT/CT lesion imaging. It counts as in vivo, human. Conditions: for detection of metastatic lesions compared with bone scan: patient with prior prostatectomy and rising PSA, FIG. 2C. The text has this: Pharmacokinetics, Biodistribution, Dosimetry, Metabolism & Excretion of compound represented by Formula (1) and Formula (2). Methods: Fourteen subjects (7 metastatic prostate cancer patients and 7 healthy, normal males) were enrolled in a phase 1, single-blind, randomized, cross-over study in which subjects were randomly administered a single dose (740 MBq; 20 mCi) of a compound represented by Formula (1) and a similar chemical analog, a compound represented by Formula (2), 14 days apart. […] (FIGS. 1 and 2A)

[3] abbreviates: Patient/Gland Level (n = 54), interim, fraction.
The mark [4] stands for this setting: Patient/Gland, matched vs MRI (n = 47), fraction.
The mark [5] stands for this setting: interim, n=54, primary prostate cancer.

In test [1] (setting [3]), “(OC-6-33)-tricarbonyl[N^2-{[(1S)-1,3-dicarboxypropyl]amino]carbamoyl}-L-γ-glutamyl-N^6,N^6-bis[(1-{2-[bis(carboxymethyl)amino]-2-oxoethyl]-1H-imidazol-2-yl-κN^3]methyl]-L-lysine-κN^6](^99mTc)(+)chloride [Formula (1)]” showed an Accuracy of 0.94, an NPV of 0.40, a PPV of 1.00 and a Sensitivity of 0.84. Moreover, the Specificity in test [1] (setting [3]) was found to be 1.00. In test [1] (setting [4]), this substance showed an Accuracy of 0.94, an NPV of 0.40, a PPV of 1.00 and a Sensitivity of 0.93. Also, in test [1] (setting [4]), the Specificity amounted to 1.00. In test [1] (interim, n=54, majority of SPECT/CT readers, histopathology as truth standard), the “patients in whom presence or absence of primary prostate cancer was correctly identified” value is 94%. Besides, in test [1] (setting [5]), the Sensitivity was 94% and the Specificity is reported as 100%. Besides, in test [1] (n=47 matched with MRI), the “matched patients in whom primary disease was correctly characterized” value was found to be 94% and the “more patients correctly characterized than by the MRI reader” value was 13%. Moreover, the “detection of metastatic lesions compared with bone scan” value in test [2] is recorded as “identified multiple foci of metastatic cancer not seen in the bone scan”. Besides, the “detection of metastatic lesions compared with bone scan” value in test [2] (listed as Formula 1) is given as “detected more metastatic lesions earlier”. The “earliest time lesions in lymph nodes and bone visualized by whole-body imaging” value in test [2] (post-injection, men with prostate cancer) came out at 1 h.
